Values quoted from earlier work in patent publication US9682051B2, “Acyclovir and meloxicam combination therapy for functional somatic syndromes” (INNOVATIVE MED CONCEPTS, LLC, priority 2012, dated 2017).

Test system: fibromyalgia patients
Settings: valacyclovir alone

SMILES: CC(C)[C@H](N)C(=O)OCCOCn1cnc2c(=O)[nH]c(N)nc21 [valacyclovir]
- Outcome of treating fibromyalgia patients: not successful
